Like-named read-outs stand apart in the source and are kept apart here.

Usually kinact/KI stands for the maximal inactivation rate divided by the concentration that gives half of it. Usually viability stands for a read-out of living cells in per cent, often relative to untreated cells. One may read the IC50 as the concentration at which inhibition is half-maximal. Usually EC50 stands for the concentration needed to bring the measured effect to its halfway point.

Data set [1] addresses T1, PLpro from SARS-CoV-2 (Severe acute respiratory syndrome coronavirus 2, UniProt P0DTD1). In words: biochemical. Format: biochemical. On the set-up: mean (kobs plot, Supplementary Figure 6 II): unit: min^-1. Conditions: for Time dep. (time-dependent inhibition): fluorogenic peptide assay, varied preincubation time.
Data set [2] has as its system SARS-CoV-2 isolate USA-WA1/2020. Conditions: for EC50 (cytopathic effect): SARS-CoV-2-infected Vero E6 cells, 48 h; for inhibition: read-out: cytopathic effect, % cell viability, duplicate wells. On the technique in general: Damage to the host cells serves as the signal in cytopathic effect assays.
The nature of another data set: in vitro. Conditions: African green monkey.
Data set [3] deals with T1, PLpro from SARS-CoV-2. Put plainly: biochemical. Format: biochemical. The note with it: for remaining activity at 0.06 µM: inhibitor 0.06 uM; for remaining activity at 0.2 µM: inhibitor 0.20 uM; for IC50: after 30-min incubation, purified PLpro, Z-RLRGG-AMC substrate.
The test system of another data set is Vero E6 cells. Conditions: African green monkey, 48 h.
In data set [4] the test system is SARS-CoV-2 isolate USA-WA1/2020. Put plainly: microbe, parasite or virus in culture.

With `C#CC(=O)NNC(=O)CCc1ccccc1C(=O)N[C@H](C)c1cccc2ccccc12` [Compound 12, (R)-N-(1-(naphthalen-1-yl)ethyl)-2-(3-oxo-3-(2-propioloylhydrazineyl)propyl)benzamide], the kinact/KI on PLpro from SARS-CoV-2 [1] came out at 4100 M⁻¹ s⁻¹. The remaining activity at 0.2 µM was 80% on PLpro from SARS-CoV-2 [1] (5 min, read-out: PLpro activity after preincubation, inhibitor 0.2 uM, preincubation 5 min); 69.8% on PLpro from SARS-CoV-2 [1] (10 min, read-out: PLpro activity after preincubation, inhibitor 0.2 uM, preincubation 10 min); 87.5% at PLpro from SARS-CoV-2 [1] (0.5 h, read-out: PLpro activity after preincubation, inhibitor 0.2 uM, preincubation 30 min); 83.5% at PLpro from SARS-CoV-2 [1] (1 h, read-out: PLpro activity after preincubation, inhibitor 0.2 uM, preincubation 60 min); 82% on PLpro from SARS-CoV-2 [1] ([…], read-out: PLpro activity after preincubation, inhibitor 0.2 uM, preincubation 15 min); 75.3% on PLpro from SARS-CoV-2 [1] ([…], read-out: PLpro activity after preincubation, inhibitor 0.2 uM, preincubation 45 min). The remaining activity at 0.2 µM on PLpro from SARS-CoV-2 [1] ([…], read-out: PLpro activity after preincubation, inhibitor 0.2 uM, preincubation 90 min) came out at 60%; at PLpro from SARS-CoV-2 [3] (0.5 h) it was 14.8%. Moreover, the remaining activity at 0.5 µM on PLpro from SARS-CoV-2 [1] (5 min, read-out: PLpro activity after preincubation, inhibitor 0.5 uM, preincubation 5 min) was found to be 68.1%; at PLpro from SARS-CoV-2 [1] (10 min, read-out: PLpro activity after preincubation, inhibitor 0.5 uM, preincubation 10 min) it was 40.2%; on PLpro from SARS-CoV-2 [1] (0.5 h, read-out: PLpro activity after preincubation, inhibitor 0.5 uM, preincubation 30 min), 14.4%; on PLpro from SARS-CoV-2 [1] ([…], read-out: PLpro activity after preincubation, inhibitor 0.5 uM, preincubation 15 min) it was 34.6%; at PLpro from SARS-CoV-2 [1] ([…], read-out: PLpro activity after preincubation, inhibitor 0.5 uM, preincubation 45 min), 1.63%. In addition, the remaining activity at 0.6 µM at PLpro from SARS-CoV-2 [1] (5 min, read-out: PLpro activity after preincubation, inhibitor 0.6 uM, preincubation 5 min) stood at 59%; at PLpro from SARS-CoV-2 [1] (10 min, read-out: PLpro activity after preincubation, inhibitor 0.6 uM, preincubation 10 min) it was 41.8%; at PLpro from SARS-CoV-2 [1] (1 h, read-out: PLpro activity after preincubation, inhibitor 0.6 uM, preincubation 60 min), 2.72%; at PLpro from SARS-CoV-2 [1] ([…], read-out: PLpro activity after preincubation, inhibitor 0.6 uM, preincubation 15 min) it was 27.5%. Also, the remaining activity at 0.7 µM on PLpro from SARS-CoV-2 [1] (5 min, read-out: PLpro activity after preincubation, inhibitor 0.7 uM, preincubation 5 min) came out at 46.3%; at PLpro from SARS-CoV-2 [1] (10 min, read-out: PLpro activity after preincubation, inhibitor 0.7 uM, preincubation 10 min), 29.5%; on PLpro from SARS-CoV-2 [1] (0.5 h, read-out: PLpro activity after preincubation, inhibitor 0.7 uM, preincubation 30 min), 7.89%; at PLpro from SARS-CoV-2 [1] ([…], read-out: PLpro activity after preincubation, inhibitor 0.7 uM, preincubation 15 min), 17.8%. Also, the remaining activity at 0.3 µM at PLpro from SARS-CoV-2 [1] (0.5 h, read-out: PLpro activity after preincubation, inhibitor 0.3 uM, preincubation 30 min) is 71%; at PLpro from SARS-CoV-2 [1] ([…], read-out: PLpro activity after preincubation, inhibitor 0.3 uM, preincubation 90 min), 15.6%. Also, the “Time dep. (time-dependent inhibition)” value on PLpro from SARS-CoV-2 [1] is “Time-dependent inhibition was observed and Yes”. The “mean (kobs plot, Supplementary Figure 6 II)” value on PLpro from SARS-CoV-2 [1] (inhibitor 0.20 uM) is 0.0069; at PLpro from SARS-CoV-2 [1] (inhibitor 0.30 uM), 0.0173; at PLpro from SARS-CoV-2 [1] (inhibitor 0.5 uM), 0.0760; on PLpro from SARS-CoV-2 [1] (inhibitor 0.6 uM) it was 0.0965; at PLpro from SARS-CoV-2 [1] (inhibitor 0.7 uM), 0.1287. Moreover, in data set [2], the “EC50 (cytopathic effect)” value was “No CPE”. In the data set “in vitro” (CC50), the CC50 at 48 h was 1000 to 5000 nM. Besides, the viability at 48 h, 8.33 µM in the data set “in vitro” (cytotoxicity, %cell viability) turned out to be 0.83%. In addition, in the data set “in vitro” (cytotoxicity, %cell viability), the viability at 48 h, 16.67 µM amounted to 0.57%. Further, in “in vitro” (cytotoxicity, %cell viability), the viability at 48 h, 33.33 µM came to 1.02%. In addition, the remaining activity at 0.06 µM at PLpro from SARS-CoV-2 [3] (0.5 h) was 75.9%. Besides, the remaining activity at 200 µM on PLpro from SARS-CoV-2 [3] (0.5 h, inhibitor 200.00 uM) is 2.39%. In addition, half-maximal inhibition against PLpro from SARS-CoV-2 [3] (IC50) required 98 nM. The “cytotoxicity, %cell viability” value stood at 0.55% in the data set with Vero E6 cells (16.67 µM) and 0.51% with Vero E6 cells (33.33 µM). Further, the inhibition at […] in data set [4] (Severe acute respiratory syndrome coronavirus 2, Vero C1008, read-out: cytopathic effect, % cell viability) is 6.23%.

Turning to `C[C@@H](NC(=O)c1ccccc1CCC(=O)NNC(=O)C(C#N)=CC1CC1)c1cccc2ccccc12` [Compound 13, (R)-2-(3-(2-(2-cyano-3-cyclopropylacryloyl)hydrazineyl)-3-oxopropyl)-N-(1-(naphthalen-1-yl)ethyl)benzamide], the “Time dep. (time-dependent inhibition)” value on PLpro from SARS-CoV-2 [1] is “not and No”. Moreover, the “EC50 (cytopathic effect)” value in data set [2] is given as “No CPE”. Also, in the data set “in vitro” (cytotoxicity, %cell viability), the viability at 48 h, 2.08 µM amounted to 83.5% and the viability at 48 h, 16.67 µM worked out at 0.88%. Besides, on PLpro from SARS-CoV-2 [3] (0.5 h), the remaining activity at 0.06 µM came out at 101% and the remaining activity at 0.2 µM worked out at 107%. The remaining activity at 6.34 µM on PLpro from SARS-CoV-2 [3] (0.5 h, inhibitor 6.34 uM) was 109%. Also, on PLpro from SARS-CoV-2 [3] (0.5 h, inhibitor 20.00 uM), the remaining activity at 20 µM is 90.5%. At PLpro from SARS-CoV-2 [3], this compound displayed an IC50 of more than 200000 nM. Besides, in the data set with Vero E6 cells (2.08 µM), the “cytotoxicity, %cell viability” value is listed as 72.90%. In addition, in the data set with Vero E6 cells (16.67 µM), the “cytotoxicity, %cell viability” value is on record as 0.71%.

Regarding `CCC(CC)COC(=O)[C@H](C)N[P@](=O)(OC[C@H]1O[C@@](C#N)(c2ccc3c(N)ncnn23)[C@H](O)[C@@H]1O)Oc1ccccc1` [remdesivir, reference compound], the entries for the “% cell viability, cytopathic effect” value in data set [2] (5.00 uM) and in data set [2] (10.00 uM) were 97.274% and 97.073%, respectively. Moreover, the inhibition in data set [2] ([inhibitor] 5.00 uM, 5 µM) worked out at 97.3%; in data set [2] ([inhibitor] 10.00 uM, 10 µM) it was 97.1%. Besides, the EC50 in data set [4] (Severe acute respiratory syndrome coronavirus 2, Vero C1008, 48 h, read-out: EC50 (cytopathic effect)) worked out at 740 nM. Moreover, in data set [4] (Severe acute respiratory syndrome coronavirus 2, Vero C1008, read-out: % cell viability, cytopathic effect, 5.00 uM), the viability at 5 µM came to 102%. Moreover, the viability at 10 µM in data set [4] (Severe acute respiratory syndrome coronavirus 2, Vero C1008, read-out: % cell viability, cytopathic effect, 10.00 uM) was 101%. For the same compound, the inhibition at 5 µM in data set [4] (Severe acute respiratory syndrome coronavirus 2, Vero C1008, read-out: cytopathic effect, % cell viability, [inhibitor] 5.00 uM, duplicate wells) amounted to 102%. The inhibition at 10 µM in data set [4] (Severe acute respiratory syndrome coronavirus 2, Vero C1008, read-out: cytopathic effect, % cell viability, [inhibitor] 10.00 uM, duplicate wells) was 101%.

These data come from paper PMC10044120, “Potent and selective covalent inhibition of the papain-like protease from SARS-CoV-2” (Nature Communications, 2023).
